The text below walks through data of patent publication US10343971B2, “Crotonates having use in perfumery” (GIVAUDAN SA, priority 2016, dated 2019).

Bounds are passed on as bounds.

Data set [1] is described as follows: Enzymatic hydrolysis (stability) in human liver S9 fractions. It counts as in vitro ADME. Conditions: 100 μM compound, human liver S9 0.166 mg/ml, phosphate buffer pH 7.4, active S9 fractions. The procedure:
Enzymes of the nasal cavity are not easily available, but the nasal cavity contains similar enzymatic activities as found in the liver, namely carboxylesterases (J. L. Lewis, K. J. Nikula, R. Novak, A. R. Dahl, Anat Rec 1994, 239). Therefore the different compounds of examples 1-3 were compared for enzymatic hydrolysis using human liver […]. Chemicals were dissolved to a final concentration of 100 μM in a total volume of 600 μl of phosphate buffer (100 mM, pH 7.4, containing 1.15% potassium chloride and 1 mM of EDTA). S9 fractions from humans at a final level of 0.166 mg/ml were added (Corning® Gentest™ Human Liver S9 Pooled Donors, 20 mg/mL protein content, Product #452961;), Lot 22877,). As control experiment, equal levels of heat inactivated S9 fractions (incubated for 10 min at 99° C.) were added to parallel samples. The samples were incubated for different time periods and then mixed in 2 ml glass vials with 300 μl of Methyl-tert-butylether (MTBE) containing as internal standard 1 ppm of dodecane. Samples were extracted on a vortex mixer for 20 s, and then ca. 200 μl of the supernatant was transferred to conical GC vials and concentrated under a stream of nitrogen. 1 μl of these concentrated extracts were then injected with a splitless injection into an Agilent GC 6890N gas chromatograph equipped with a flame-ionisation detector. The following GC conditions were applied: Column: Rtx −5; 30 m length×0.32 mm internal diameter×0.25 μm film thickness; Carrier gas: Hydrogen; Column flow: 2 mL; Initial temperature of 60° C. held for 2 min, subsequent linear gradient with 10° C. per minute up to a temperature of 240° C. […] To determine calibration curves, dilutions of the test chemicals or of the potentially released alcohols were added to heat inactivated S9 fraction and extracted, concentrated and analysed as described above. All concentrations (in test samples and calibration curves) were determined by normalization to the internal standard. […]

Data set [2] is described as follows: KeratinoSens assay: cytotoxicity / cellular viability. The format is cell-based. Conditions: human; 48 h incubation; read-out: Concentration for 50% Cytotoxicity. The method, then:
(§1) The KeratinoSens™ test compares the potential skin sensitization risk of chemicals. The KeratinoSens™ cell line contains a stable insertion of a Luciferase gene under the control of the ARE-element of the gene AKR1C2 and induction of luciferase is indicative of skin sensitization potential (R. Emter, G. Ellis, A. Natsch, Toxicol. Appl. Pharmacol. 2010, 245, 281-290). The assay was performed as described by the OECD test guideline 442d. KeratinoSens cells were grown for 24 h in 96-well plates. The medium was then replaced with medium containing the test chemical and the solvent dimethylsulfoxide (DMSO) at a final level of 1%. Each compound was tested at 12 binary dilutions in the range from 0.98 to 2000 μM. Cells were incubated for 48 h with the test agents, and then luciferase activity and cytotoxicity were determined. This full procedure was repeated three times for each chemical. For each chemical in each repetition and at each concentration, the gene induction compared to DMSO controls and the wells with statistically significant induction over the threshold of 1.5 (i.e. 50% enhanced gene activity) were determined. Furthermore, the maximal fold-induction (Imax) and the EC1.5 value (concentration in μM for induction above the threshold) were calculated. Chemicals are rated as positive (i.e. likely skin-sensitizers) in the assay if the following three criteria are fulfilled: […]

In data set [3] the test system is KeratinoSens cell line (Luciferase gene under the control of the ARE-element of the gene AKR1C2). Nature of the data set: KeratinoSens assay for skin sensitization: luciferase gene induction. It counts as cell-based. Conditions: for Concentration for 1.5-fold gene induction (EC 1.5 in μM) / Imax (fold maximal gene induction): 48 h incubation, 0.98 to 2000 μM; for Imax (fold maximal gene induction): threshold 1.5-fold; for rating of skin sensitization by the KeratinoSens assay: result in words. The procedure: Compounds were tested using the commercial KeratinoSens™ assay for skin sensitization.
The KeratinoSens™ test compares the potential skin sensitization risk of chemicals. The KeratinoSens™ cell line contains a stable insertion of a Luciferase gene under the control of the ARE-element of the gene AKR1C2 and induction of luciferase is indicative of skin sensitization potential (R. Emter, G. Ellis, A. Natsch, Toxicol. Appl. Pharmacol. 2010, 245, 281-290). The assay was performed as described by the OECD test guideline 442d. KeratinoSens cells were grown for 24 h in 96-well plates. The medium was then replaced with medium containing the test chemical and the solvent dimethylsulfoxide (DMSO) at a final level of 1%. Each compound was tested at 12 binary dilutions in the range from 0.98 to 2000 μM. Cells were incubated for 48 h with the test agents, and then luciferase activity and cytotoxicity were determined. This full procedure was repeated three times for each chemical. For each chemical in each repetition and at each concentration, the gene induction compared to DMSO controls and the wells with statistically significant induction over the threshold of 1.5 (i.e. 50% enhanced gene activity) were determined. Furthermore, the maximal fold-induction (Imax) and the EC1.5 value (concentration in μM for induction above the threshold) were calculated. Chemicals are rated as positive (i.e. likely skin-sensitizers) in the assay if the following three criteria are fulfilled:
(i) EC1.5 value is below 1000 μM.
(ii) At the lowest concentration with a gene induction above 1.5 fold, the cellular viability is above 70%.
(iii) There is an apparent overall dose-response for luciferase induction, which is similar between the repetitions.

The test system of data set [4] is test peptide Cor1C-420 (Ac-NKKCDLF). Nature of the data set: Peptide reactivity assay (kinetic variant of DPRA, LC-MS). Conditions: 1 mM test chemical, 0.1 mM peptide, 37° C. The method, then: A second method to determine allergenic potential of chemicals is the DPRA direct peptide assay (OECD TG 442c). It is based on the fact that allergenic chemicals must react with a peptide/protein in order to be immunogenic.
A peptide reactivity assay (A. Natsch, H. Gfeller, Toxicol. Sci. 2008, 106, 464-478) was conducted similarly to the DPRA assay, but including a kinetic measurement to quantify reactivity: The test chemicals were dissolved to a final concentration of 4 mM in acetonitrile and 250 μl of this solution were added to 2 ml HPLC vials. The test peptide Cor1C-420 with the sequence Ac-NKKCDLF (Genscript Inc., Piscataway, N.J., USA), was dissolved at 0.133 mM in 20 mM phosphate buffer at pH 7.5, and 750 μl of this solution were added to each test vial (final concentrations: 1 mM of test chemical and 0.1 mM of peptide in 25% acetonitrile; ratio 1:10 as in the DPRA assay). The samples were incubated for 1-24 h at 37° C. and at regular intervals they were analysed by LC-MS analysis on a VELOS PRO Mass spectrometer (Thermo SCIENTIFIC, San Jose, Calif., U.S.A.) operated in the ESI(+) mode.
Mass spectra were recorded from 200-2000 amu. […]
Two endpoints are measured with this assay:
a) Depletion of the parent peptide (FIG. 3): The mass of the protonated parent peptide is measured and the corresponding peak integrated (% depletion). […]

The next data set relates to KeratinoSens cells. Nature of the data set: KeratinoSens assay: cytotoxicity / cellular viability. It counts as cell-based. The following applies: 48 h incubation; read-out: Concentration for 50% Cytotoxicity. The procedure: as §1

`C/C=C/C(=O)OC1[C@H](C)CCC[C@H]1C` (relative stereo) [Example 2, (2R*,6R*)-2,6-dimethylcyclohexyl (E)-but-2-enoate]: in data set [1], the “cleavage (enzymatic hydrolysis of the ester) by active S9 fractions” value (“cleavage … by active S9 fractions” for short) is reported as “completely hydrolysed”.

For `C/C=C/C(=O)O[C@H]1[C@@H](C)C=CCC1(C)C` (relative stereo) [Example 6a, (1S*,2S*)-2,6,6-Trimethylcyclohex-3-en-1-yl (E)-but-2-enoate], the IC50 at 48 h in data set [2] is 89.4 µM. For the same compound, in data set [3], the “Concentration for 1.5-fold gene induction (EC 1.5 in μM)” value was “No induction” and the “Imax (fold maximal gene induction)” value stood at 1.13 fold.

As to `C/C=C/C(=O)O[C@@H]1[C@H](C)CCC[C@@H]1C` [Example 1, (1s*,2R*,6S*)-2,6-dimethylcyclohexyl (E)-but-2-enoate], the IC50 at 48 h in data set [2] was 86.9 µM. Moreover, in data set [3], the “Concentration for 1.5-fold gene induction (EC 1.5 in μM)” value is given as “No induction” and the “rating of skin sensitization by the KeratinoSens assay” value is recorded as “non-sensitizing”. Also, the “peptide depletion (consumption of the parent peptide as compared to controls)” value in data set [4] (1-24 h) is listed as below 10%. Moreover, in data set [4] (after 1 h), the “lower levels of peptide adducts as compared to Damascone Delta and Damascone gamma” value is above 100. Also, the “cleavage … by active S9 fractions” value in data set [1] is listed as below 3%.

Take `C/C=C/C(=O)O[C@H]1[C@H](C)CCC[C@@H]1C` [Example 3, (1r*,2R*,6S*)-2,6-dimethylcyclohexyl (E)-but-2-enoate]: in data set [1], the “cleavage … by active S9 fractions” value is given as 15%.

As to `C/C=C/C(=O)C1=C(C)CCCC1(C)C` [β-Damascone, (2E)-1-(2′,6′,6′-trimethylcyclohex-1′-en-1′-yl)but-2-en-1-one, reference compound], the IC50 in the data set with KeratinoSens cells turned out to be 56.7 µM. Besides, in data set [3], the “concentration at which the luciferase gene is induced” value was 4.5 µM, the “Concentration for 1.5-fold gene induction (EC 1.5 in μM)” value was 4.5 µM, the “Imax (fold maximal gene induction)” value worked out at 29.8 fold and the “rating of skin sensitization by the KeratinoSens assay” value is recorded as “significantly sensitizing compound”.
